Source: ChEMBL document CHEMBL5625227, “Discovery and optimization of 2,3-diaryl-1,3-thiazolidin-4-one-based derivatives as potent and selective cytotoxic agents with anti-inflammatory activity” (Eur J Med Chem, 2023)
pIC50: −log10 of the molar value. The source made the active and inactive calls. The rule behind the calls is not given here.

How the values were obtained:
[1] = Selectivity index, ratio of IC50 for cytotoxicity against human MRC5 cells to IC50 for cytotoxicity against human A2780 cells; settings: MRC5 cells versus A2780 cells
[2] = Selectivity index, ratio of IC50 for cytotoxicity against human MRC5 cells to IC50 for cytotoxicity against human HT-29 cells; settings: MRC5 cells versus HT-29 cells
[3] = Selectivity index, ratio of IC50 for cytotoxicity against human MRC5 cells to IC50 for cytotoxicity against human MCF7 cells; settings: MRC5 cells versus MCF7 cells
A2780 = test: Cytotoxicity against human A2780 cells assessed as inhibition in cell growth incubated for 72 hrs by MTT assay; format: functional, cell-based; settings: A2780, 72 h
[4] = Cytotoxicity against human MRC5 cells assessed as inhibition in cell growth incubated for 72 hrs by MTT assay; format: toxicity, cell-based
MCF7 [5] = test: Cytotoxicity against human MCF7 cells assessed as inhibition in cell growth incubated for 72 hrs by MTT assay; format: functional, cell-based; settings: MCF7, 72 h
HT-29 = test: Cytotoxicity against human HT-29 cells assessed as inhibition in cell growth incubated for 72 hrs by MTT assay; format: functional, cell-based; settings: HT-29, 72 h
Rattus norvegicus [6] = test: Antiinflammatory activity against carrageenan-induced paw edema Sprague-Dawley rat model assessed as inhibition of inflammation at 50 mg/kg, po after 3 hrs relative to control; format: functional; design: scale not given: the % may be the effect or the level left
Rattus norvegicus [7] = test: Antiinflammatory activity against carrageenan-induced paw edema Sprague-Dawley rat model assessed as inhibition of paw edema by measuring edema thickness at 50 mg/kg, po measured after 5 hrs (reference value: 1.39 +/- 0.11 mm); format: functional
Rattus norvegicus [8] = test: Antiinflammatory activity against carrageenan-induced paw edema Sprague-Dawley rat model assessed as inhibition of paw edema by measuring edema thickness at 50 mg/kg, po measured after 1 hr (reference value: 0.71 +/- 0.03 mm); format: functional
Rattus norvegicus [9] = test: Antiinflammatory activity against carrageenan-induced paw edema Sprague-Dawley rat model assessed as inhibition of inflammation at 50 mg/kg, po after 5 hrs relative to control; format: functional; design: scale not given: the % may be the effect or the level left
[10] = target: T1, Prostaglandin G/H synthase 1 (Ovis aries, UniProt P05979); test: Inhibition of ovine COX-1
T1 sequence (P05979 whole entry): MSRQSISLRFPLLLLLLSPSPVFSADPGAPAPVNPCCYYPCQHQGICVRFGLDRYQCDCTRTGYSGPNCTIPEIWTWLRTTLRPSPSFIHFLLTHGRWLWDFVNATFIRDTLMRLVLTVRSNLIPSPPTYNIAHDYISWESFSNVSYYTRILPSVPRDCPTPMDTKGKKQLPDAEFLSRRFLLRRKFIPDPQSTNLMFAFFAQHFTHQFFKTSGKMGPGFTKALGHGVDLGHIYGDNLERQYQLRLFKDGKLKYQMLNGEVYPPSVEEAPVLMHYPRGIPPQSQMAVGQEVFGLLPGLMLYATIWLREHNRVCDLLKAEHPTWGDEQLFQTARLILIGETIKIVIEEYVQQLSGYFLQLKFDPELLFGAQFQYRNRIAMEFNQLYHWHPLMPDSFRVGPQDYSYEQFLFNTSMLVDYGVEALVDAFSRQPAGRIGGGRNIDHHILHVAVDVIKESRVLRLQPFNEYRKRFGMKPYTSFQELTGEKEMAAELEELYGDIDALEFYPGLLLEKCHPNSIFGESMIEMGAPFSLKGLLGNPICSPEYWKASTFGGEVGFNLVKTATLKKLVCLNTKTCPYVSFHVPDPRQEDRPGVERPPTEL

Rattus norvegicus [11] = test: Antiinflammatory activity against carrageenan-induced paw edema Sprague-Dawley rat model assessed as inhibition of inflammation at 50 mg/kg, po after 1 hr relative to control; format: functional; design: scale not given: the % may be the effect or the level left
Rattus norvegicus [12] = test: Antiinflammatory activity against carrageenan-induced paw edema Sprague-Dawley rat model assessed as inhibition of paw edema by measuring edema thickness at 50 mg/kg, po measured after 3 hrs (reference value: 1.41 +/- 0.13 mm); format: functional
[13] = Acute ulcerogenic activity in Sprague-Dawley male rat assessed as abnormal structure of the gastric layer by measuring inflammatory cells infiltration in lamina propria at 50 mg/kg/day, po administered for 3 days by hematoxylin and eosin staining method; format: toxicity, organism-based, Stomach; settings: in vivo, 72 h, time 3 day
[14] = Acute ulcerogenic activity in Sprague-Dawley male rat assessed as abnormal structure of the gastric layer by measuring glandular hyperactivation in submucosa at 50 mg/kg/day, po administered for 3 days by hematoxylin and eosin staining method; format: toxicity, organism-based, Stomach; settings: in vivo, 72 h, time 3 day
[15] = Acute ulcerogenic activity in Sprague-Dawley male rat assessed as ulcer index at 50 mg/kg/day, po administered for 3 days; format: toxicity, organism-based; settings: in vivo, 72 h, time 3 day
[16] = Acute ulcerogenic activity in Sprague-Dawley male rat assessed as average number of ulcers at 50 mg/kg/day, po administered for 3 days; format: toxicity, organism-based; settings: in vivo, 72 h, time 3 day
[17] = Acute ulcerogenic activity in Sprague-Dawley male rat assessed as incidence of ulcer/10 animal at 50 mg/kg/day, po administered for 3 days; format: toxicity, organism-based; settings: in vivo, 72 h, time 3 day
[18] = Acute ulcerogenic activity in Sprague-Dawley male rat assessed as abnormal structure of the gastric layer by measuring infiltration of lymphocytes in lamina propria at 50 mg/kg/day, po administered for 3 days by hematoxylin and eosin staining method; format: toxicity, organism-based, Stomach; settings: in vivo, 72 h, time 3 day
[19] = Acute ulcerogenic activity in Sprague-Dawley male rat assessed as abnormal structure of the gastric layer by measuring infiltration of macrophages in lamina propria at 50 mg/kg/day, po administered for 3 days by hematoxylin and eosin staining method; format: toxicity, organism-based, Stomach; settings: in vivo, 72 h, time 3 day
[20] = Acute ulcerogenic activity in Sprague-Dawley male rat assessed as abnormal structure of the gastric layer by measuring infiltration of lymphocytes in submucosa at 50 mg/kg/day, po administered for 3 days by hematoxylin and eosin staining method; format: toxicity, organism-based, Stomach; settings: in vivo, 72 h, time 3 day
[21] = Acute ulcerogenic activity in Sprague-Dawley male rat assessed as abnormal structure of the gastric layer by measuring deeply congested blood vessels and aggregated of inflammatory cells at 50 mg/kg/day, po administered for 3 days by hematoxylin and eosin staining method; format: toxicity, organism-based, Stomach; settings: in vivo, 72 h, time 3 day
[22] = Acute ulcerogenic activity in Sprague-Dawley male rat assessed as average severity of ulcers at 50 mg/kg/day, po administered for 3 days; format: toxicity, organism-based; settings: in vivo, 72 h, time 3 day
[23] = Acute ulcerogenic activity in Sprague-Dawley male rat assessed as abnormal structure of the gastric layer by measuring infiltration of macrophages in submucosa at 50 mg/kg/day, po administered for 3 days by hematoxylin and eosin staining method; format: toxicity, organism-based, Stomach; settings: in vivo, 72 h, time 3 day
PC-3 = test: Cytotoxicity against human PC-3 cells assessed as inhibition in cell growth; format: functional, cell-based
HCT-116 = test: Cytotoxicity against human HCT-116 cells assessed as inhibition in cell growth; format: functional, cell-based
MCF7 [24] = test: Cytotoxicity against human MCF7 cells assessed as inhibition in cell growth; format: functional, cell-based
HepG2 = test: Cytotoxicity against human HepG2 cells assessed as inhibition in cell growth; format: functional, cell-based
THP-1 = test: Cytotoxicity against human THP-1 cells assessed as inhibition in cell growth; format: functional, cell-based
Sus scrofa = organism: Sus scrofa; test: Induction of porcine brain tubulin polymerization at 3 uM by fluorescence-based tubulin polymerization assay

SMILES | selectivity ratio at 72 h [1] | selectivity ratio at 72 h [2] | selectivity ratio at 72 h [3] | pIC50 (A2780) | IC50 at 72 h [4] [nM] | pIC50 (MCF7 [5]) | pIC50 (HT-29) | also measured
O=C(COc1ccc(N2C(=O)CSC2c2ccccc2)cc1)Nc1ccc(F)cc1 (stereo not given) | 2.53 | 2.62 | 4.89 | 5.27 | 13500 | 5.56 | 5.29 | 
COc1cc(NC(=O)COc2ccc(N3C(=O)CSC3c3ccccc3)cc2)cc(OC)c1OC (stereo not given) | 4.69 | 2.92 | 4.13 | 5.70 | 9380 | 5.64 | 5.49 | 
COc1ccc(NC(=O)COc2ccc(N3C(=O)CSC3c3ccc(C)cc3)cc2)cc1 (stereo not given) | 0.61 | 0.54 | 1.17 | 5.33 | 2890 | 5.61 | 5.27 | Activity (Rattus norvegicus [6]): 32.7%; Activity (Rattus norvegicus [7]): 0.73 mm; Activity (Rattus norvegicus [8]): 0.61 mm; Activity (Rattus norvegicus [9]): 47.48%; pIC50 [10]: 5.08; Activity (Rattus norvegicus [11]): 15.3%; Activity (Rattus norvegicus [12]): 0.79 mm
O=C(COc1ccc(N2C(=O)CSC2c2ccc(Cl)cc2)cc1)Nc1ccccc1 (stereo not given) | 0.57 | 3.36 | 1.13 | 5.59 | 1480 | 5.88 | 6.36 | 
O=C(COc1ccc(N2C(=O)CSC2c2ccc(Cl)cc2)cc1)Nc1ccc(F)cc1 (stereo not given) | 0.79 | 13.6 | 5.97 | 4.96 | 8720 | 5.84 | 6.19 | 
Cc1ccc(NC(=O)COc2ccc(N3C(=O)CSC3c3ccccc3)cc2)cc1 (stereo not given) | 1.75 | 1.35 | 1.59 | 5.79 | 2850 | 5.75 | 5.68 | Activity (Rattus norvegicus [6]): 32.7%; Activity (Rattus norvegicus [7]): 0.69 mm; Activity (Rattus norvegicus [8]): 0.57 mm; Activity (Rattus norvegicus [9]): 47.48%; pIC50 [10]: 5.34; Activity (Rattus norvegicus [11]): 15.3%; Activity (Rattus norvegicus [12]): 0.67 mm
O=C(COc1ccc(N2C(=O)CSC2c2ccccc2)cc1)Nc1ccccc1 (stereo not given) | 0.52 | 0.77 | 1.54 | 5.15 | 3690 | 5.62 | 5.32 | 
O=C(COc1ccc(N2C(=O)CSC2c2ccccc2)cc1)Nc1ccc(Cl)cc1 (stereo not given) | 0.63 | 3.02 | 1.79 | 4.77 | 10600 | 5.22 | 5.45 | Activity (Rattus norvegicus [6]): 32.7%; Activity (Rattus norvegicus [7]): 0.53 mm; Activity (Rattus norvegicus [8]): 0.54 mm; Activity (Rattus norvegicus [9]): 47.48%; pIC50 [10]: 4.44; Activity (Rattus norvegicus [11]): 15.3%; Activity (Rattus norvegicus [12]): 0.63 mm
COc1ccc2c(c1)c(CC(=O)O)c(C)n2C(=O)c1ccc(Cl)cc1 [INDOMETHACIN] |  |  |  |  |  |  |  | Activity (Rattus norvegicus [7]): 0.24 mm; Activity [13]: Toxic; Activity [14]: Toxic; Activity (Rattus norvegicus [8]): 0.41 mm; UI [15]: 22.33; Activity [16]: 11.33; Activity [17]: 10%; Activity [18]: Toxic; Activity (Rattus norvegicus [11]): 42.25%; Activity (Rattus norvegicus [12]): 0.22 mm; Activity [19]: Toxic; Activity [20]: Toxic; Activity [21]: Toxic; Activity [22]: 1; Activity [23]: Toxic
Cc1ccc(NC(=O)COc2ccc(N3C(=O)CSC3c3ccc(C)cc3)cc2)cc1 (stereo not given) | 1.1 | 4.44 | 2.34 | 5.55 | 3110 | 5.88 | 6.15 | 
COc1cccc2c1C(=O)c1c(O)c3c(c(O)c1C2=O)C[C@@](O)(C(=O)CO)C[C@@H]3O[C@H]1C[C@H](N)[C@H](O)[C@H](C)O1 [DOXORUBICIN] |  |  |  | 5.29 | 2500 |  | 5.82 | 
COc1ccc(NC(=O)COc2ccc(N3C(=O)CSC3c3ccccc3)cc2)cc1OC (stereo not given) | 5.76 | 3.43 | 4.19 | 5.89 | 7370 | 5.75 | 5.67 | 
CC(=O)c1ccc(NC(=O)COc2ccc(C3SCC(=O)N3c3ccccc3)cc2)cc1 (stereo not given) |  |  |  |  |  |  |  | pIC50 (PC-3): 4.74; pIC50 (HCT-116): 4.74; pIC50 (MCF7 [24]): 4.74; pIC50 (HepG2): 4.74
COc1ccc(N2C(=O)CSC2c2cc(OC)c(OC)c(OC)c2)cc1 (stereo not given) |  |  |  |  |  |  |  | pIC50 (THP-1): 5.92
CC(=O)O[C@H]1C(=O)[C@@]2(C)[C@H]([C@H](OC(=O)c3ccccc3)[C@]3(O)C[C@H](OC(=O)[C@H](O)[C@@H](NC(=O)c4ccccc4)c4ccccc4)C(C)=C1C3(C)C)[C@]1(OC(C)=O)CO[C@@H]1C[C@@H]2O |  |  |  |  |  |  |  | Activity (Sus scrofa): Active
Cc1ccc(C2SCC(=O)N2c2ccc(OCC(=O)Nc3ccccc3)cc2)cc1 (stereo not given) | 0.32 | 0.79 | 0.77 | 5.55 | 890 | 5.94 | 5.95 | 
Cc1ccc(NC(=O)COc2ccc(N3C(=O)CSC3c3ccc(Cl)cc3)cc2)cc1 (stereo not given) | 1.94 | 3.57 | 1.53 | 5.79 | 3180 | 5.68 | 6.05 | 
COc1cc2c(c(OC)c1OC)-c1ccc(OC)c(=O)cc1[C@@H](NC(C)=O)CC2 [COLCHICINE] |  |  |  | 7.64 |  |  | 5.28 | 
COc1ccc(NC(=O)COc2ccc(N3C(=O)CSC3c3ccc(Cl)cc3)cc2)cc1 (stereo not given) | 0.78 | 1.28 | 0.81 | 5.89 | 1000 | 5.91 | 6.11 | 
O=C(COc1ccc(N2C(=O)CSC2c2ccc(Cl)cc2)cc1)Nc1ccc(Cl)cc1 (stereo not given) | 0.84 | 5 | 2.83 | 5.11 | 6600 | 5.63 | 5.88 | 
